Measurements taken from patent US8247220B2, “Optical indicator for detecting bacterial pathogens” (Kimberly-Clark Worldwide, Inc., priority 2008, dated 2012).

What was measured:
[1] = tested on: P. aeruginosa; test: Titration of microorganism spot with Reichardt's dye solution; details: 10^7 CFU/ml, 100 μl; dye 160 mg in 10 g acetonitrile, 10 μl aliquots
[2] = tested on: A. niger; test: as above; details: 10^5 CFU/mL, 100 μl; dye 160 mg in 10 g acetonitrile, 10 μl aliquots
[3] = tested on: Influenza A (ATCC # VR-544); test: Reichardt's dye-treated samples with upper respiratory viruses; details: compared with Salmonella bacterial control at a similar concentration
[4] = tested on: S. aureus; test: Titration of microorganism spot with Reichardt's dye solution; details: 10^7 CFU/ml, 100 μl; dye 160 mg in 10 g acetonitrile, 10 μl aliquots
From the text: (§1) 10^7 CFU/ml of S. aureus.

[5] = tested on: E. coli; test: as above; details: 10^7 CFU/ml, 100 μl; dye 160 mg in 10 g acetonitrile, 10 μl aliquots
From the text: as §1

[6] = tested on: S. aureus protoplasts; test: Protoplasts on label coated with Reichardt's dye; details: 100 μL aliquot, label coated with 80 mg/10 g acetonitrile, approximately 5 minutes
Method: An additional test to verify reaction with the cell wall was performed by creating protoplasts through enzymatic digestion of the bacterial cell wall. […] Louis, Mo.) suspended in TM buffer (0.05 M Tris-HCl, pH 7.4, 20 mM MgCl2) with 15% (w/v) of sucrose (Sigma-Aldrich, St. Louis, Mo.). The reaction was carried out for one hour at 30° C., after which the solution was centrifuged at 10,000×g, and rinsed twice with TM buffer containing 13% (w/v) sucrose according to methods detailed by Taku and Fan (The Journal of Biological Chemistry, 1979). The solution containing protoplasts was reacted (100 μL aliquot) with an Avery label coated with Reichardt's dye (80 mg/10 g acetonitrile). Untreated bacteria was diluted 10 fold in the TM/13% sucrose buffer (without lysozyme) and were placed on the label as a positive control.

[7] = tested on: G. vaginalis; test: Titration of microorganism spot with Reichardt's dye solution; details: 10^7 CFU/ml, 100 μl; dye 160 mg in 10 g acetonitrile, 10 μl aliquots
[8] = tested on: Streptococcus pneumoniae (ATCC # 10015); test: Reichardt's dye-treated samples with upper respiratory pathogens; details: 100 microliters
From the text: (§2) It has been observed in prior experiments that gram positive bacteria elicit a stronger de-colorization response than other types of microorganisms.

[9] = tested on: Moraxella lacunata (ATCC # 17972); test: as above; details: 100 microliters
From the text: as §2

[10] = tested on: Streptococcus pyogenes (ATCC # 10782); test: as above; details: 100 microliters
From the text: as §2

[11] = tested on: Haemophilus influenzae (ATCC # 49247); test: as above; details: 100 microliters
From the text: as §2

[12] = tested on: C. albicans; test: Titration of microorganism spot with Reichardt's dye solution; details: 10^7 CFU/ml, 100 μl; dye 160 mg in 10 g acetonitrile, 10 μl aliquots
[13] = tested on: autoclaved S. aureus; test: Autoclaved bacteria sprayed with Reichardt's dye indicator spray; details: S. aureus 10^6 CFU/mL autoclaved; spray 160 mg in 10 g isopropanol
Method: In order to verify that the bacterial cell wall plays a critical role in this reaction, a vial of S. aureus (10^6 CFU/mL) was autoclaved before testing with the indicator spray (160 mg Reichardt's Dye in 10 g of isopropanol). Autoclaving kills bacteria by essentially blowing the cell wall apart. The steam from the autoclave penetrates the bacteria and rips the membrane apart.

[14] = tested on: bacterial spores such as Anthracis bacillus
[15] = tested on: S. aureus; test: Standard curve on dye-coated paper, Delta E against log CFU/mL; details: paper coated with 80 mg/10 g acetonitrile, 100 μL aliquots, spectrophotometer CIELAB
[16] = tested on: vegetative organism; design: species or system Anthracis bacillus
[17] = tested on: Rhinovirus Type 42; test: Reichardt's dye-treated samples with upper respiratory viruses; details: compared with Salmonella bacterial control at a similar concentration
[18] = tested on: Salmonella; test: Dye-coated absorbent substrate tested with Salmonella-containing liquid; details: 100 microliter aliquots on dye-coated substrate
From the text: Gibraltar Labs (Fairfield, N.J.) placed 100 microliter aliquots of the solutions onto the absorbent substrate.

[19] = tested on: Lactobacillus; test: Titration of microorganism spot with Reichardt's dye solution; details: 10^7 CFU/ml, 100 μl; dye 160 mg in 10 g acetonitrile, 10 μl aliquots
[20] = tested on: gram-positive bacteria; test: Visible colour change of Reichardt's dye-coated absorbent substrate, serial dilutions of bacteria; details: 100 μl aliquot on dye-coated substrate, colour change visible to the eye
[21] = Bacterial cell-wall components on dye-coated substrate and titration with Reichardt's dye; details: 5%, 1%, 0.2% (wt/wt) solutions (pure LPS 0.1%, 0.02%, 0.004%); both experimental set-ups

With [O-]c1c(-c2ccccc2)cc(-[n+]2c(-c3ccccc3)cc(-c3ccccc3)cc2-c2ccccc2)cc1-c1ccccc1 [Reichardt's dye, 4-(2,4,6-triphenylpyridinium-1-yl)-2,6-diphenylphenolate] the “Amount of Dye Required for Persistent Color” value (from here on “Amount of Dye Required”) [1] was 80 µL, the “Amount of Dye Required” value [2] was 50 µL and the “de-colorization of the dye” value [3] was “markedly less de-colorization”. The “Amount of Dye Required” value [4] was 90 µL, the “Amount of Dye Required” value [5] was 90 µL and the “de-colorization of the dye” value [6] was “minimal de-colorization”. The “Amount of Dye Required” value [7] was 90 µL, the “de-colorization of dye-treated samples” value [8] was “de-colorized” and the “de-colorization of dye-treated samples” value [9] was “de-colorized”. The “de-colorization of dye-treated samples” value [10] was “de-colorized”, the “de-colorization of dye-treated samples” value [11] was “de-colorized” and the “Amount of Dye Required” value [12] was 70 µL. The “de-colorization of the dye” value [13] was “no de-colorization was observed”, the “sensitivity of the dye to bacterial spores” value [14] was “not sufficiently sensitive” and the “responsiveness of the dye (Delta E)” value [15] was “dose-dependent”. For the same molecule, the “de-colorization of the dye” value [16] was “de-colorization occurred”, the “de-colorization of the dye” value [17] was “markedly less de-colorization” and the “de-colorization of the dye” value [18] was “decolorized the dye”. The “Amount of Dye Required” value [19] was 110 µL and the “lower limit for indication of gram-positive bacteria” value [20] was 100 CFU/ml.

In the case of C[C@@H](O[C@H]1[C@H](O)[C@@H](CO)OC(O)[C@@H]1N)C(=O)O (stereo partly drawn) [Muramic acid, muramic acid], the “de-colorization of Reichardt's dye by cell-wall component” value [21] is reported as “strongest reaction, resulting in a near instantaneous de-colorization of the dye”.
